Source: patent publication US20180021294A1, “Ephrin Receptor A2 (EPHA2)-Targeted Docetaxel-Generating Nano-Liposome Compositions” (Merrimack Pharmaceuticals, Inc., priority 2016, published 2018)

Assays:
[1] = Hydrolysis in buffer at 37° C., % DTX formation by HPLC; format: physicochemical
Experimental: A volume of a 10 mg/mL solution of drug in DMSO as needed to provide the desired concentration (typically 16 p1 to yield a 80 μg/mL solution) is placed in a glass test tube or 4 mL vial. Additional DMSO may also be added (e.g. 64 μL when using 164 of drug solution) to yield a final total DMSO concentration of 4%. The DMSO solutions are mixed by brief vortexing, and then 2 mL (20 mM) HEPES buffer for pH 7.5 and 2 mL of (20 mM) phosphate buffer for pH 2.5 is added and the mixture is vortexed again. The initial pH may be adjusted by addition of HCl or NaOH.
Then 100 μLaliquots of the buffer solution of drug are transferred into HPLC vials and incubated in a 37° C. water bath. The remaining solution is also incubated at 37° C. in 4 mL vials for monitoring of pH.
At each time point 900 μL of 0.1% trifluoroacetic acid (TFA) in acetonitrile (ACN) is added to the HPLC vial and the contents are vortexed. The vials are then placed in an autosampler rack at 4° C. for HPLC analysis.
Time zero data points are typically obtained from a solution of 4 μL DMSO stock in 5 mL of 0.1% TFA/ACN (8 μg/mL).
HPLC analysis is performed on a SYNERGI 4 micron Polar RP-80A, 250×4.6 mm column, using a flow rate of 1 mL/min, a 50 μL injection volume, column temperature of 25° C. and with UV detection at 227 nm. Most compounds are analyzed using a 13 min gradient (Method A) from 30 to 66% acetonitrile in aqueous 0.1% TFA, followed by a 1 min gradient back to 30% and a hold at 30% for 6 minutes. If the retention time is too long for this method, a 20 min gradient (Method B) of 30 to 90% acetonitrile, followed by a 1 min return to 30% and held for 9 min at 30% is employed.
The extent of hydrolysis is reported in Table 7 below as the % DTX formation based on relative peak areas.

MDA-MB-231 xenograft = experiment: Drug biodistribution in MDA-MB-231 xenograft model; format: in vivo, mice; conditions: after 40scFv-ILs-DTXp3 50 mpk; tumor vs liver and spleen
Source text: Each group consists of 3 animals. “Mpk” stand for mg of the drug per kg animal body weight.
The animals received one tail vein injection of 40scFv-ILs-DTXp3 at 50 mpk or free docetaxel at 10 mpk. At each time point, animals were sacrificed and tumor, liver and spleen were collected and flash frozen.
All tissue samples were thawed, weighed, and then mechanically homogenized using a Bullet Blender (Next Advance, Inc., Averill Park, N.Y.) in a solution of 40% acetonitrile containing 0.25% trifluoroacetic acid. The acid was included in the solvent for pH stabilization of Compound 3. […]
The homogenized tissue samples were analyzed utilizing two bioanalytical assays to individually measure Compound 3 and DTX. […] The analytes, Compound 3 and DTX, were detected in both assays by multiple reaction monitoring (MRM) in positive ion mode using electrospray ionization. The homogenized tissue samples were quantitated for Compound 3 and DTX using extracted calibration standards and quality control (QC) samples prepared by spiking Compound 3 or DTX into an acidified plasma matrix, which is a 3:2 mixture of female CD-1 lithium heparinized mouse plasma (Bioreclamation, LLC, Westbury, N.Y.) and 200 mM sodium phosphate buffer (pH 2.5). […]

[2] = Coagulation parameters (PT, APTT, fibrinogen) in rats; format: in vivo, Sprague Dawley rats; conditions: 10 mg/kg, end of study (Day 30), vs vehicle control
Experimental: Blood samples collected at end of study from all the tested groups were analyzed for coagulation-related parameters including: Prothrombin time (PT), activated partial thromboplastin time (APTT) and fibrinogen levels.

[3] = In vivo tolerability in Swiss Webster mice; conditions: IV
Source text: Swiss Webster homozygous female mice (5-6 week old) were obtained from Charles River Laboratory. The animals received tail vein injections, at the intervals of 7 days of tested compound at tested dose (Table 5: Experimental design).
Animal weight and performance status score were monitored based on clinical observation of the mice three to four times a week (clinical observations table). Animals that experience severe toxicity are euthanized according to IACUC protocol. If more than 30% of the mice experience severe toxicity the tested dose is deemed not tolerated.

SUM-159 xenograft = conditions: mouse, in vivo
Source text: The animals received four tail vein injections, at the intervals of 7 days.
The tumor progression was monitored by palpation and caliper measurements of the tumors along the largest (length) and smallest (width) axis twice a week.

[4] = Chronic tolerability studies; conditions: in vivo
Experimental: Chronic tolerability studies were performed in rodent and non-rodent models with focus on overall animal health, as well as hematologic toxicities.

Row | Compound | Percentage of Hydrolysis (% DTX formation) ([1]; pH 2.5, 0 h) | Percentage of Hydrolysis (% DTX formation) ([1]; pH 2.5, 5 h) | Percentage of Hydrolysis (% DTX formation) ([1]; pH 2.5, 24 h) | Percentage of Hydrolysis (% DTX formation) ([1]; pH 2.5, 48 h) | Percentage of Hydrolysis (% DTX formation) ([1]; pH 2.5, 96 h) | Percentage of Hydrolysis (% DTX formation) ([1]; pH 7.5, 0 h) | Percentage of Hydrolysis (% DTX formation) ([1]; pH 7.5, 5 h) | Percentage of Hydrolysis (% DTX formation) ([1]; pH 7.5, 24 h) | Percentage of Hydrolysis (% DTX formation) ([1]; pH 7.5, 48 h) | Percentage of Hydrolysis (% DTX formation) ([1]; pH 7.5, 96 h) | conversion of prodrug to docetaxel in tissue (docetaxel/Compound 3 ratio) (MDA-MB-231 xenograft) | Activated partial thromboplastin time (APTT) [2] | maximum tolerated dose for weekly treatment [3] | treatment related toxicity (body weight) (SUM-159 xenograft) | MTD [4]
1 | CC(=O)O[C@@]12CO[C@@H]1C[C@H](O)[C@@]1(C)C(=O)[C@H](O)C3=C(C)[C@@H](OC(=O)[C@H](OC(=O)CCCN(C)C)[C@@H](NC(=O)OC(C)(C)C)c4ccccc4)C[C@@](O)([C@@H](OC(=O)c4ccccc4)[C@H]21)C3(C)C.Cl [Compound 4, 2′-O-[4-(N,N-Dimethylamino)butanoyl] DTX Hydrochloride] | 0.00% | 0.00% | 0.00% | 0.00% | 0% | 0.00% | 76.07% | 100.00% | 100.00% | 100% |  |  |  |  | 
2 | CCN(CC)CCCC(=O)O[C@@H](C(=O)O[C@H]1C[C@@]2(O)[C@@H](OC(=O)c3ccccc3)[C@@H]3[C@]4(OC(C)=O)CO[C@@H]4C[C@H](O)[C@@]3(C)C(=O)[C@H](O)C(=C1C)C2(C)C)[C@@H](NC(=O)OC(C)(C)C)c1ccccc1.Cl [Compound 3, 2′-O-(4-Diethylaminobutanoyl) DTX Hydrochloride] | 0.00% | 0.00% | 0.00% | 0.00% | 0% | 0.00% | 45.76% | 100.00% | 100.00% | 100% | sustained conversion of the Compound 3 to docetaxel at the tumor site |  |  |  | 
3 | CC(=O)O[C@@]12CO[C@@H]1C[C@H](O)[C@@]1(C)C(=O)[C@H](O)C3=C(C)[C@@H](OC(=O)[C@H](O)[C@@H](NC(=O)OC(C)(C)C)c4ccccc4)C[C@@](O)([C@@H](OC(=O)c4ccccc4)[C@H]21)C3(C)C [docetaxel] |  |  |  |  |  |  |  |  |  |  |  | shortened | 20 mpk | severe | 20 mg/kg
